Assay results: US8021658B2, “Alternative splice forms of proteins as basis for multiple therapeutic modalities” (Thomas Jefferson University, priority 2001, dated 2011)
Bridges are numbered along the chain shown (N, C = ends). Roman numbers before positions name the chains, in order. Where no end group is shown, it is not given here.

Key:
HC2 20d2/c tumor cells = experiment: Regression of HC2 20d2/c tumors in mice vaccinated with VEGF peptides; format: in vivo; settings: FIG. 2; for reduction in average tumor volume: by the end of the study; for tumor regression (average tumor volume vs. time): mice injected with HC2 20d2/c tumor cells, vaccinated four days post-injection with peptide plus murine GM-CSF
Description: The VEGF peptides and the SEQ ID NO: 85 homodimer were evaluated for their ability to elicit an anti-tumor immune response in a mouse tumor model. A total of 112 syngeneic mice were divided into eight treatment groups of 14 mice each, and injected with HC2 20d2/c tumor cells. Four days post-injection, the first through fifth treatment groups were vaccinated in the left inguinal area with 100 μg of either SEQ ID NO: 73, SEQ ID NO: 75, SEQ ID NO: 77, SEQ ID NO: 79, or the SEQ ID NO: 81 dimer diluted in 100 μl of PBS mixed with 45 ng of murine GM-CSF as an adjuvant. The total volume of phosphate buffered saline (PBS) was 150 microliters with 2 mg/ml mouse serum albumin as a carrier. The sixth treatment group was vaccinated as above with a combination of all four VEGF peptides and the SEQ ID NO: 81 homodimer (60 μg each) in a total of 200 microliters of PBS with 45 ng of murine GM-CSF and 2 mg/ml mouse serum albumin. The seventh treatment group was vaccinated as above with 100 μg of a peptide derived from a mutant epidermal growth factor receptor (EGFR) protein called EGFRvIII (SEQ ID NO: 82). The vaccine composition also contained 45 ng of murine GM-CSF and 2 mg/ml mouse serum albumin. The EGFRvIII mutation is the result of a genomic rearrangement in the EGFR gene, and the EGFRvIII peptide (SEQ ID NO: 82) is reported to induce an immune response against tumor cells expressing the mutant receptor. The eighth treatment group was vaccinated with GM-CSF and 2 mg/ml mouse serum albumin in PBS with no peptide, as a control. All treatment groups were then injected once daily for the next 3 days with the 45 ng GM-CSF in the original area of vaccination.

[1] = system: HC2 20d2/c tumor cells pulsed with the immunizing peptide; experiment: ELISPOT assay (anti-interferon-gamma) of cytotoxic T lymphocyte activity of splenocytes from immunized mice; format: cell-based; settings: FIG. 5; for CTL response compared with mouse treated with SEQ ID NO: 82 (EGFRvIII): mice which had undergone tumor regression
Description: Briefly, the ELISPOT method is performed by coating a cell culture dish or well with a cytokine capture antibody, for example an anti-interferon gamma antibody. The unoccupied spots on the culture dish or well are then blocked with a non-specific binding protein. Target cells, for example tumor cells, that endogenously synthesize the alternative splice form which has been used to stimulate PBLs are added to the culture dish or well. Alternatively, target cells can be pulsed with the peptide of interest. Activated PBLs are then added to the culture dish or well. If the activated PBLs specifically lyse the target cells, the PBLs secrete cytokines such as interferon-gamma, which is captured by the cytokine capture antibody initially coated onto the culture dish or well. A secondary antibody that recognized a different epitope of interferon gamma is then used to detect the presence of any interferon-gamma secreted by the PBLs and captured by the cytokine capture antibody. The secondary antibody can be conjugated with a detectable label, such as fluorescent or radioactive label. Identification of peptides of the invention which induce MHC-restricted cytotoxic T lymphocyte responses by the ELISPOT method is shown in Example 5 below.
Splenocytes from mice inoculated with GM-CSF only were used as a control (“control”). HC2 20d2/c tumor cells pulsed with 10 micrograms/ml of the immunizing peptide, or mouse serum albumin (for splenocytes from GM-CSF only treated animals) were used as the target cells for the treatment and control splenocytes, respectively. Untreated HC2 20d2/c tumor cells were used as negative control target cells.
The splenocytes were incubated at various ratios (from 10:1 to 2:1) with target cells in triplicate, and lytic events were identified with an ELISPOT assay using anti-interferon-gamma antibody as the cytokine capture antibody. The specific spots per 10^6 cells were quantitated using the lytic events from untreated target cells as the background, and then performing linear regression analysis.

[2] = splenocytes of immunized mice which had undergone tumor regression, target cells pulsed with the vaccinating peptide

Row | Substance | reduction in average tumor volume (HC2 20d2/c tumor cells; HC2 20d2/c tumor model) | tumor regression (average tumor volume vs. time) (HC2 20d2/c tumor cells) | CTL response compared with mouse treated with SEQ ID NO: 82 (EGFRvIII) [1] | CTL response (ELISPOT) [1, 2] | CTL response (ELISPOT) ([1]; splenocytes of vaccinated mouse which had not undergone tumor regression) | time at which tumor regression is most notable (HC2 20d2/c tumor cells; HC2 20d2/c tumor model) [days after vaccination] | time until which regression is seen (HC2 20d2/c tumor cells; HC2 20d2/c tumor model) [days after vaccination] | tumor progression (HC2 20d2/c tumor cells; HC2 20d2/c tumor model) | tumor progression (HC2 20d2/c tumor cells; HC2 20d2/c tumor model, listed as SEQ ID NO: 81) | duration of initial tumor progression (HC2 20d2/c tumor cells; HC2 20d2/c tumor model, after vaccination)
1 | L E R S E S C E D R C P (LERSESCEDRCP; VEGFD alt splice #2 peptide) [SEQ ID NO: 79, peptide encoded by alternatively spliced murine VEGFD mRNA] | strong reduction in average tumor volumes | – | – | – | – | – | – | – | – | –
2 | R T K P E K C D K P R R (RTKPEKCDKPRR; VEGF alt splice #1) [SEQ ID NO: 73, peptide encoded by alternatively spliced mouse VEGF mRNA] | – | pattern of regression similar to that found for the EGFRvIII peptide | greater than that seen for the mouse treated with SEQ ID NO: 82 | strong CTL responses | poor CTL responses | – | – | – | – | –
3 | RTKPEKCDKPRRC (disulfide I:13-II:13; cysteine pairing not given here) [SEQ ID NO: 81 homodimer] | strong reduction in average tumor volumes | induce tumor regression to some degree | – | – | – | 12 | ~20 | initially shows tumor progression | progress from that point onward | –
4 | SEQ ID NO: 82: peptide derived from a mutant epidermal growth factor receptor (EGFR) protein called EGFRvIII (LEEKKGNYVVTDHC; EGFRvIII peptide) [reference compound] | – | distinct regression noted thereafter | – | – | – | – | – | progression was not as dramatic as the control mice | – | approximately 5 days
5 | V V K Q L V Q T P P L P P (VVKQLVQTPPLPP; VEGFB alt splice #1 peptide) [SEQ ID NO: 75, peptide encoded by alternatively spliced murine VEGFB mRNA] | – | – | greater than that seen for the mouse treated with SEQ ID NO: 82 | strong CTL responses | – | – | ~20 | progress from that point onward | – | –
